Drawing on patent US9718828B2 (MERCK SHARP & DOHME CORP., priority 2011, dated 2017), this text covers EC50 for 20 compounds.

Counter-ions that a name gives are not always drawn. Some results are limits rather than exact numbers.

Chain of Btk enzyme (His-Btk) (Q06187 whole entry): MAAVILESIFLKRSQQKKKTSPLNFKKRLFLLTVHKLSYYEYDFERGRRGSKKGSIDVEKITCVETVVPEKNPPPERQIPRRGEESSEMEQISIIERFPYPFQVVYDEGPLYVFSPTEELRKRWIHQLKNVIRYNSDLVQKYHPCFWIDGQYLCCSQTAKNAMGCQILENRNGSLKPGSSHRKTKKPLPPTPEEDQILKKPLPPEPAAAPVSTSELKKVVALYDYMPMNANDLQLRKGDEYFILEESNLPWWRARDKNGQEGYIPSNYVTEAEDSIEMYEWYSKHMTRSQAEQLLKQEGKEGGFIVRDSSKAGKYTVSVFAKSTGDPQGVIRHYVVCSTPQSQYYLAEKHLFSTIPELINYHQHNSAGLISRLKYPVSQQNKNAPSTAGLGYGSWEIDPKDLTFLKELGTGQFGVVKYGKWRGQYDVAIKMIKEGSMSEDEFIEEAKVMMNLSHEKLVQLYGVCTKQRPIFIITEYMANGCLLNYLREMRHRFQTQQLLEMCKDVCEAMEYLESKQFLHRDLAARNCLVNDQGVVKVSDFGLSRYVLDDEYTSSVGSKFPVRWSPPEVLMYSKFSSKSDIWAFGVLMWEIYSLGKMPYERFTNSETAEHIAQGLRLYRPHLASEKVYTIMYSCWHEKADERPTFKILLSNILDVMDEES

The first assay addresses Btk enzyme (His-Btk) (Homo sapiens (Human), UniProt Q06187). Briefly: Btk enzyme activity, IMAP fluorescence polarization assay (Assay Method A).
Conditions: not given
(In general: In fluorescence polarisation assays a small probe gives low polarisation when free and higher when bound to something large.)
For the compound `COCCC(=O)N1CCC[C@@H](c2nc(-c3ccc(C(=O)Nc4ccccn4)cc3)c3c(N)nccn23)C1` [Example 50, (R)-4-(8-amino-3-(1-(3-methoxypropanoyl)piperidin-3-yl)imidazo[1,5-a]pyrazin-1-yl)-N-(pyridin-2-yl)benzamide], the EC50 (in general, the concentration at which the effect is half-maximal) was less than 0.01 µM. `C[C@@H]1CC[C@@H](c2nc(-c3ccc(C(=O)Nc4cc(C(F)(F)F)ccn4)cc3)c3c(N)nccn23)CN1C(=O)C1CCCO1` (relative stereo) [Example 185, 4-(8-amino-3-((trans)-6-methyl-1-(tetrahydrofuran-2-carbonyl)piperidin-3-yl)imidazo[1,5-a]pyrazin-1-yl)-N-(4-(trifluoromethyl)pyridin-2-yl)benzamide, TFA salt] returned an EC50 of 0.01 to 0.1 µM.

As for `Nc1nccn2c(C3CCOCC3)nc(-c3ccc(C(=O)Nc4nccs4)cc3)c12` [Example 29, 4-(8-amino-3-(tetrahydro-2H-pyran-4-yl)imidazo[1,5-a]pyrazin-1-yl)-N-(thiazol-2-yl)benzamide], the EC50 lay within 0.1 to 1 µM. The compound `CCOC(=O)C1CC1CN1CCC[C@@H](c2nc(-c3ccc(C(=O)Nc4ccccn4)cc3)c3c(N)nccn23)C1` (stereo partly drawn) [Example 137, ethyl 2-(((R)-3-(8-amino-1-(4-(pyridin-2-ylcarbamoyl)phenyl)imidazo [1,5-a]pyrazin-3-yl)piperidin-1-yl)methyl) cyclopropanecarboxylate, TFA salt] had an EC50 of 0.1 to 1 µM. `CC(CNC(=O)OCc1ccccc1)c1nc(-c2ccc(C(=O)Nc3cc(C(F)(F)F)ccn3)cc2)c2c(N)nccn12` (centres unmarked) [Example 132, benzyl 2-(8-amino-1-(4-(4-(trifluoromethyl)pyridin-2-ylcarbamoyl)phenyl)imidazo[1,5-a]pyrazin-3-yl)propylcarbamate] had an EC50 of 0.01 to 0.1 µM. Consider `Nc1nccn2c([C@@H]3CCCN(Cc4ccc[nH]4)C3)nc(-c3ccc(C(=O)Nc4cc(C5CC5)ccn4)cc3)c12` [Example 144, (R)-4-(3-(1-((1H-pyrrol-2-yl)methyl)piperidin-3-yl)-8-aminoimidazo[1,5-a]pyrazin-1-yl)-N-(4-cyclopropylpyridin-2-yl)benzamide, TFA salt], for which the EC50 lay within 0.01 to 0.1 µM. `N#Cc1ccnc(NC(=O)c2ccc(-c3nc([C@@H]4CCCN(C(=O)C5CC5)C4)n4ccnc(N)c34)cc2)c1` [Example 98, (R)-4-(8-amino-3-(1-(cyclopropanecarbonyl)piperidin-3-yl)imidazo[1,5-a]pyrazin-1 yl)-N-(4-cyanopyridin-2-yl)benzamide] came in with an EC50 of less than 0.01 µM. Same read-out and setting: in the case of `CCc1cnc(NC(=O)c2ccc(-c3nc(C4CCOCC4)n4ccnc(N)c34)cc2)s1` [Example 28, 4-(8-amino-3-(tetrahydro-2H-pyran-4-yl)imidazo[1,5-a]pyrazin-1-yl)-N-(5-ethylthiazol-2-yl)benzamide] it was 0.01 to 0.1 µM; in that of `CC(C)(F)C(=O)N1CCC[C@@H](n2nc(-c3ccc(C(=O)Nc4cc(C(F)(F)F)ccn4)cc3)c3c(N)ncnc32)C1` [Example 270, (R)-4-(4-amino-1-(1-(2-fluoro-2-methylpropanoyl)piperidin-3-yl)-1H-pyrazolo[3,4-d]pyrimidin-3-yl)-N-(4-(trifluoromethyl)pyridin-2-yl)benzamide], 0.01 to 0.1 µM.

Still in this assay, the particulars now being: read-out: EC50 Btk activity values - Assay Method A; IMAP-FP, 60 min pre-incubation, 5 μM ATP; class 100-1000 is given as ≧100 nM-<1 μM.
For the compound `CCOC(=O)N1C[C@H](c2nc(-c3ccc(C(=O)Nc4cc(C5CC5)ccn4)cc3)c3c(N)nccn23)CC[C@@H]1C` (relative stereo) [Example 199, (cis)-ethyl 5-(8-amino-1-(4-(4-cyclopropylpyridin-2-ylcarbamoyl)phenyl)imidazo [1,5-a]pyrazin-3-yl)-2-methylpiperidine-1-carboxylate, TFA salt], the EC50 is less than 0.01 µM. Turning to `CCC(=O)N[C@@H]1CCC[C@@H](c2nc(-c3ccc(C(=O)Nc4cc(C(F)(F)F)ccn4)cc3)c3c(N)nccn23)C1` (relative stereo) [Example 170, 4-(8-amino-3-((trans)-3-propionamidocyclohexyl)imidazo [1,5-a]pyrazin-1-yl)-N-(4-(trifluoromethyl)pyridin-2-yl)benzamide], the EC50 is less than 0.01 µM. For the compound `Nc1nccn2c([C@@H]3CCCNC3)nc(-c3ccc(C(=O)Nc4cc(C(F)(F)F)ccn4)cc3)c12` [Example 106, (R)-4-(8-amino-3-(piperidin-3-yl)imidazo[1,5-a]pyrazin-1-yl)-N-(4-(trifluoromethyl)pyridin-2-yl)benzamide], the concentration giving a half-maximal response (EC50) is less than 0.01 µM.

On to `CO[C@H]1CC[C@@H](c2nc(-c3ccc(C(=O)Nc4cc(C(F)(F)F)ccn4)cc3)c3c(N)nccn32)CC1` [Example 40, 4-(8-amino-3-((cis)-4-methoxycyclohexyl)imidazo [1,5-a]pyrazin-1-yl)-N-(4-(trifluoromethyl)pyridin-2-yl)benzarnide], for which the concentration for a half-maximal effect (EC50) is less than 0.01 µM.

For `CCNC(=O)N[C@H]1CCC[C@@H](c2nc(-c3ccc(C(=O)Nc4cc(C(F)(F)F)ccn4)cc3)c3c(N)nccn23)C1` (relative stereo) [Example 155, 4-(8-amino-3-((cis)-3-(3-ethylureido)cyclohexyl)imidazo [1,5-a]pyrazin-1-yl)-N-(4-(trifluoromethyl)pyridin-2-yl)benzamide], the EC50 was less than 0.01 µM.

Turning to `CCOCCC(=O)N1C[C@H](c2nc(-c3ccc(C(=O)Nc4ccccn4)cc3)c3c(N)nccn23)CC[C@@H]1C` (relative stereo) [Example 206, 4-(8-amino-3-((cis)-1-(3-ethoxypropanoyl)-6-methylpiperidin-3-yl)imidazo[1,5-a]pyrazin-1-yl)-N-(pyridin-2-yl)benzamide, TFA salt], the EC50 is less than 0.01 µM. In the case of `CC1(C(=O)N2CCC[C@@H](c3nc(-c4ccc(C(=O)Nc5cc(C(F)(F)F)ccn5)cc4)c4c(N)ncc(/C=C/c5ccc(F)cc5)n34)C2)COC1` [Example 318, (R,E)-4-(8-amino-5-(4-fluorostyryl)-3-(1-(3-methyloxetane-3-carbonyl)piperidin-3-yl)imidazo[1,5-a]pyrazin-1-yl)-N-(4-(trifluoromethyl)pyridin-2-yl)benzamide], the EC50 is less than 0.01 µM. Take `Nc1nccn2c(N3CCCC(C(=O)NCC4CC4)C3)nc(-c3ccc(C(=O)Nc4cc(C(F)(F)F)ccn4)cc3)c12` (centres unmarked) [Example 233, 1-(8-amino-1-(4-(4-(trifluoromethyl)pyridin-2-ylcarbamoyl)phenyl)imidazo[1,5-a]pyrazin-3-yl)-N-(cyclopropylmethyl)piperidine-3-carboxamide, TFA salt]: the EC50 is less than 0.01 µM. For the compound `CCOCCC(=O)N1CCC[C@@H](n2nc(-c3ccc(C(=O)Nc4cc(C(F)(F)F)ccn4)cc3)c3c(N)ncnc32)C1` [Example 281, (R)-4-(4-amino-1-(1-(3-ethoxypropanoyl)piperidin-3-yl)-1H-pyrazolo[3,4-d]pyrimidin-3-yl)-N-(4-(trifluoromethyl)pyridin-2-yl)benzamide], the EC50 was less than 0.01 µM. For the compound `Nc1nccn2c([C@@H]3CCCN(CC(O)CO)C3)nc(-c3ccc(C(=O)Nc4cc(C(F)(F)F)ccn4)cc3)c12` (stereo partly drawn) [Example 139, 4-(8-amino-3-((3R)-1-(2,3-dihydroxypropyl)piperidin-3-yl)imidazo[1,5-a]pyrazin-1-yl)-N-(4-(trifluoromethyl)pyridin-2-yl)benzamide, TFA salt], the EC50 was less than 0.01 µM. Still for that read-out and setting: in the case of `CC1(C)CC(c2nc(-c3ccc(C(=O)Nc4cc(C(F)(F)F)ccn4)cc3)c3c(N)nccn23)CCO1` (centres unmarked) [Example 34, 4-(8-amino-3-(2,2-dimethyltetrahydro-2H-pyran-4-yl)imidazo[1,5-a]pyrazin-1-yl)-N-(4-(trifluoromethyl)pyridin-2-yl)benzamide] it was less than 0.01 µM.
